Where a name gives a salt, the structure may show the parent alone.

The target of assay [1] is T1, V1 Recepter (rat liver plasma membrane preparations) (Rattus norvegicus, UniProt P30560).
T1 construct: rat liver plasma membrane preparations; from tissue; host or cells: rat liver plasma membranes
Nature of the assay: V1 Recepter binding assay. As to conditions: [3H]-Arg-vasopressin 2×10^-10 M, 37° C., 10 minutes, pH 8.0, rat liver plasma membrane. On the procedure: Test-1: V1 Recepter binding assay
By using rat liver plasma membrane preparations prepared according to Ichiraha's method [by Akira Ichihara: J. Bio. Chem., 258, 9283 (1983)], the plasma membrane (50,000 dpm, 2×10^-10 M) of [^3 H]-Arg-vasopressin and a test compound (60 μg, 10^-8 to 10^-4 M) were incubated at 37° C. for 10 minutes in 250 μl (in total volume) of 100 mM Tris-HCl buffer (pH=8.0), containing 5 mM MgCl2, 1 mM EDTA and 0.1% BSA. After the incubation, the mixture was filtered three times by using a glass filter (GF/F) so as to separate the membrane preparation by combining with vasopressin and then washed with the buffer (5 ml). This glass filter was taken out and mixed with a liquid of scintillation cocktail. The amount of [^3 H]-vasopressin combining with the membrane was measured by liquid scintillation counter and the rate of inhibitory effect of the test compound was calculated according to the following equation: […]
C1 : the amount of [^3 H]-vasopressin combining with the membrane in the presence of the test compound of a known amount,
(§1) C0 : the amount of [^3 H]-vasopressin combining with the membrane in the absence of the test compound,
B1 : the amount of [^3 H]-vasopressin combining with the membrane in the presence of the excess amount of vasopressin (10^-6 M).
The results are expressed as IC50 value, which is the concentration of the test compound required to achieve the inhitory effect in the rate of 50% and are shown in the following Table 156.

The target in assay [2] is T2, V2 Recepter (rat kidney plasma membrane preparations) (Rattus norvegicus, UniProt Q00788).
T2 construct: rat kidney plasma membrane preparations; from tissue; host or cells: rat kidney plasma membranes
Nature of the assay: V2 Recepter binding assay. As to conditions: [3H]-Arg-vasopressin 4×10^-10 M, 4° C., pH 8.0, rat kidney plasma membrane. The method, then: Test 2: V2 Recepter binding assay
By using rat kidney plasma membrane preparations prepared according to Hechter's method [by O. Hechter: J. Bio. Chem., 2.53, 3211 (1978)], the plasma membrane (100,000 dpm, 4×10^-10 M) of [^3 H]-Arg-vasopressin and a test compound (0.6 mg, 10^-10 to 10^-5 M) were incubated at 4° C. for 3 hours in 250 μl (in total volume) of 100 mM Tris-HCl buffer (pH=8.0), containing, 5 mM MgCl2, 1 mM EDTA and 0.1% BSA. After the incubation, the mixture, the mixture was filtered by using a glass filter (GF/F) so as to separate the membrane preparation combining with vasopressin, then washed twice with the buffer (5 ml). This glass filter was taken out and mixed with liquid scintillation cocktail. The amount of [^3 H]-vasopressin combining with the membrane was measured by a liquid scintillation counter and the rate of inhibitory effect of the test compound was calculated according to the following equation: Rate of the inhibitory
C1 : the amount of [^3 H]-vasopressin combining with the membrane in the presence of the testcompound of a known amount,
as §1
B1 : the amount of [^3 H]-vasopressin combining with the mebrane in the presence of the excess amount of vasopressin (10^-6 M).
The results are expressed as IC50 value, which is the concentration of the test compound required to achieve the inhibitory effect in the rate of 50%, and are shown in the following Table 157.

Assay [3] addresses T3, Oxytocin receptor (uterin muscle membrane preparation) (Rattus norvegicus, UniProt P70536).
T3 construct: was homogenized, which was used as a membrane; from tissue; host or cells: uterine muscle membranes from diethylstilbestrol-treated animals
T3 sequence (P70536 1-388): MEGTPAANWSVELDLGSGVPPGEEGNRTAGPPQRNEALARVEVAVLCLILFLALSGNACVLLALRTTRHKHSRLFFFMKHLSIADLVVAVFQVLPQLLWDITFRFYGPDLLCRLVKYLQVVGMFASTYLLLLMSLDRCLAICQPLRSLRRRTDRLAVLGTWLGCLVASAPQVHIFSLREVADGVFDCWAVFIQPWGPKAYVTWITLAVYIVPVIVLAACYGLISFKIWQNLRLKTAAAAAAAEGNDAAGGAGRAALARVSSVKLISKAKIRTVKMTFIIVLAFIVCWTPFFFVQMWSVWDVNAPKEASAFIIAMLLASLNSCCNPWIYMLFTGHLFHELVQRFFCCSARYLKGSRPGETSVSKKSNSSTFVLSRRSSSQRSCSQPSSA
Nature of the assay: Oxytocin receptor binding assay. As to conditions: [3H]-oxytocin 10^-9 M, 25°, one hour, pH 8.0, uterin muscle membrane, DES-treated. On the procedure:
Test-5 Oxytocin receptor binding assay
In accordance with Chan's method [by W. Y. Chan, et al.: Endocrinology, 126, 2095-2101 (1990)], the uterin muscle benn injected subcutaneously with diethylstilbe-sterol (DES) the day before and was homogenized, which was used as a membrane prepara tion. The membrane preparation (0.2 mg), [^3 H]-oxytocin (100,000 dpm, 10^-9 M), a test compound (10^-9 to 10^-5 M) were incubated at 25°. for one hour in 100 mM Tris-HCl buffer (pH=8.0, 250 μl) containing 5 mM MgCl2, 1 mM EDTA and 0.1% BSA. The mixture was filtered through a glass filter (GF/F) so as to separate the membrane preparation combining with [^3 H]-oxytocin, then, was washed twicw with the buffer (5 ml). The glass filter was put into a vial and mixed with Aquasole (a liquid scintillation cocktail). The amount of [^3 H]-oxytocin combining w ith the membrane was measured by a liquid scintillation counter. The rate of the inhibitory effect of the test compound was calculated according to the equation as follows: […]
C1 : the amount of [^3 H]-oxytocin combining with the membrane in the presence of a test compound (in known amount),
C0 : the amount of [^3 H]-oxytocin combinig with the membrane in the absence of a test compound,
B: the amount of [^3 H]-oxytocin combining with the membrane in the presence of the excess amount of oxytocin (5×10^-6 M).
The results are expressed as IC50 values, which is the concentration of the test compound required to achieve the inhibitory effect in the rate of 50%.

T2 sequence (Q00788 whole entry): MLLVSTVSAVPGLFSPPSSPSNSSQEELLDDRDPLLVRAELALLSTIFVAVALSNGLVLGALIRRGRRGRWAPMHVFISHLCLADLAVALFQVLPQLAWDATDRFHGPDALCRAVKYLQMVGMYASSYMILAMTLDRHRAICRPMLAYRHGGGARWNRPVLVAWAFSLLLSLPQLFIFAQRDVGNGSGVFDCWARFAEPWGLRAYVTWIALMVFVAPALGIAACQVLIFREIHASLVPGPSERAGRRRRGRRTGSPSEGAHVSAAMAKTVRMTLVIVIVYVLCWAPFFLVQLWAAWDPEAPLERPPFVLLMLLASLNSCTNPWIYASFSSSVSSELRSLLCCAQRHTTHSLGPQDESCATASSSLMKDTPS
T1 sequence (P30560 whole entry): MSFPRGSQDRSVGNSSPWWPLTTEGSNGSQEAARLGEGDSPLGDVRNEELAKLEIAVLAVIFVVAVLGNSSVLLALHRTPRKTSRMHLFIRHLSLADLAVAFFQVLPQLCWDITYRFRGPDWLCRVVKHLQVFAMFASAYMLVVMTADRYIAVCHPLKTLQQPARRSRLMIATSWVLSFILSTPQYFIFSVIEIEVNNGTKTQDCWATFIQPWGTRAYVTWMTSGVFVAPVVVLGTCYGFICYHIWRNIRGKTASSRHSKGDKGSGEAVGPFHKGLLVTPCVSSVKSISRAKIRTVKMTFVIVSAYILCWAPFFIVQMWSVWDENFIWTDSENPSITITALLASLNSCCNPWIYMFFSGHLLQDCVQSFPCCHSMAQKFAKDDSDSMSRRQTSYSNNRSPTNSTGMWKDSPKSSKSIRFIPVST

Consider `COc1cc(C(=O)N2CCCCc3cc(Cl)ccc32)ccc1NC(=O)c1ccccc1OCCCN1CCC(NC(C)=O)CC1` (single isomer, unassigned) [Example 72, 7-Chloro-1-[3-methoxy-4-{2-[3-(4-acetylamino-1-piperidinyl)propoxy]benzoylamino}benzoyl]-2,3,4,5-tetrahydro-1H-benzoazepine], for which the 50% inhibitory concentration (IC50) (usually the concentration needed to halve the response being measured) is 1.2 nM in assay [1] and 74 nM in assay [2].
Take `C=CCOC1CCCN(C(=O)c2ccc(NC(=O)c3ccccc3C)cc2)c2ccc(Cl)cc21` (centres unmarked) [Example 64, 5-Allyloxy-7-chloro-1-[4-(2-methylbenzoylamino)benzoyl]-2,3,4,5-tetrahydro-1H-benzoazepine]: the IC50 in assay [1] worked out at 45 nM.
For `COc1cc(C(=O)N2CCCCc3cc(Cl)ccc32)ccc1NC(=O)c1ccccc1OCCCn1cncn1` [Example 73, 7-Chloro-1-[3-methoxy-4-{2-[3-(1,2,4-triazol-1-yl)-propoxy]benzoylamino}benzoyl]-2,3,4,5-tetrahydro-1H-benzoazepine], the IC50 was determined as 7 nM in assay [1] and 80 nM in assay [2].
On the same counts, the results for `COc1cc(NC(=O)c2ccccc2Cl)ccc1C(=O)N1CCCC(CC(=O)NCCN(C)C)c2cc(Cl)ccc21` (centres unmarked) [Example 89, 5-(2-Dimethylaminoethylamino)carbonylmethyl-7-chloro-1-[2-methoxy-4-(2-chlorobenzoylamino)benzoyl]-2,3,4,5-tetrahydro-1H-benzoazepine.cndot.hydrochloride] are 9 nM and 2.5 nM.
On the same counts, the results for `CCN(CC)CCN(C)C(=O)CC1CCCN(C(=O)c2ccc(NC(=O)c3ccccc3Br)c(OC)c2)c2ccc(Cl)cc21` (centres unmarked) [Example 91, 5-[N-Methyl-N-(2-diethylaminoethyl)amino]-carbonylmethyl-7-chloro-1-[3-methoxy-4-(2-bromobenzoylamino)benzoyl]-2,3,4,5-tetrahydro-1H-benzoazepine] are 2.6 nM and 3.5 nM.
Consider `Cc1cc(NC(=O)c2ccccc2Cl)ccc1C(=O)N1CCCC(OCCn2cnnn2)c2cc(Cl)ccc21` (centres unmarked) [Example 93, 5-[2-(1,2,3,4-Tetrazol-1-yl)ethoxy]-7-chloro-1-[2-methyl-4-(2-chlorobenzoylamino)benzoyl]-2,3,4,5-tetrahydro-1H-benzoazepine], for which the IC50 in assay [2] was 14 nM. This counts as double-digit nanomolar.
The same measure, in the same setting: in the case of `Cc1cc(NC(=O)c2ccccc2Cl)ccc1C(=O)N1CCCC(CCN2CCOCC2)c2cc(Cl)ccc21` (centres unmarked) [Example 95] it was 17 nM.
As to `Cc1cc(NC(=O)c2ccccc2Cl)ccc1C(=O)N1CCCC(CCN2CCCCC2)c2cc(Cl)ccc21` (centres unmarked) [Example 96, 5-[2-(1-Piperidinyl)ethyl]-7-chloro-1-[2-methyl-4-(2-chlorobenzoylamino)benzoyl]-2,3,4,5-tetrahydro-1H-benzoazepine.cndot.hydrochloride], the IC50 came to 4400 nM in assay [3] and 9 nM in assay [2].
In the same order, the values of `Cc1cc(NC(=O)c2ccccc2Cl)ccc1C(=O)N1CCCC(CCN2CCCC2)c2cc(Cl)ccc21` (centres unmarked) [Example 97, 5-[2-(1-Pyrrolidinyl)ethyl]-7-chloro-1-[2-methyl-4-(2-chlorobenzoylamino)benzoyl]-2,3,4,5-tetrahydro-1H-benzoazepine.cndot.hydrochloride] are 4070 nM and 7.2 nM.
In assay [2], `Cc1cc(NC(=O)c2ccccc2Cl)ccc1C(=O)N1CCCC(CCn2cnnn2)c2cc(Cl)ccc21` (centres unmarked) [Example 98] yielded a 50% inhibitory concentration (IC50) of 9 nM.
For the compound `Cc1cc(NC(=O)c2ccccc2Cl)ccc1C(=O)N1CCCC(CCn2ncnn2)c2cc(Cl)ccc21` (centres unmarked) [Example 99], the concentration for half-maximal inhibition (IC50) in assay [3] was found to be 2800 nM; in assay [2], 12 nM.
In the same order, the values of `C=CCN(C)CCC1CCCN(C(=O)c2ccc(NC(=O)c3ccccc3Cl)cc2C)c2ccc(Cl)cc21` (centres unmarked) [Example 100] are 4040 nM and 4.7 nM.
In the same order, the values of `C=CCNCCC1CCCN(C(=O)c2ccc(NC(=O)c3ccccc3Cl)cc2C)c2ccc(F)cc21` (centres unmarked) [Example 101, 5-(2-Allylaminoethyl)-7-fluoro-1-[2-methyl-4-(2-chlorobenzoylamino)benzoyl]-2,3,4,5-tetrahydro-1H-benzoazepine] are 5300 nM and 7 nM.
In the same order, the values of `Cc1cc(NC(=O)c2ccccc2Cl)ccc1C(=O)N1CCCC(CCNC2CC2)c2cc(Cl)ccc21` (centres unmarked) [Example 102, 5-(2-Cyclopropylaminoethyl)-7-chloro-1-[2-methyl-4-(2-chlorobenzoylamino)benzoyl]-2,3,4,5-tetrahydro-1H-benzoazepine.cndot.hydrochloride] are 2900 nM and 7.1 nM.
As to `C#CCNCCC1CCCN(C(=O)c2ccc(NC(=O)c3ccccc3Cl)cc2C)c2ccc(Cl)cc21` (centres unmarked) [Example 103, 5-(2-Propargylaminoethyl)-7-chloro-1-[2-methyl-4-(2-chlorobenzoylamino)benzoyl]-2,3,4,5-tetrahydro-1H-benzoazepine.cndot.hydrochloride], the IC50 in assay [3] is 3000 nM; in assay [2], 8 nM.
In assay [2], `Cc1cc(NC(=O)c2ccccc2Cl)ccc1C(=O)N1CCCC(CCn2cncn2)c2cc(Cl)ccc21` (centres unmarked) [Example 105, 5-[2-(1,2,4-Triazol-1-yl)ethyl]-7-chloro-1-[2-methyl-4-(2-chlorobenzoylamino)benzoyl]-2,3,4,5-tetrahydro-1H-benzoazepine] showed an IC50 of 7.5 nM.
`C=CCN(C)CCC1CCCN(C(=O)c2ccc(NC(=O)c3ccccc3Cl)cc2C)c2ccc(F)cc21` (centres unmarked) [Example 129, 5-[2-(N-Allyl-N-methylamino)ethyl]-7-fluoro-1-[2-methyl-4-(2-chlorobenzoylamino)benzoyl]-2,3,4,5-tetrahydro-1H-benzoazepine] yielded an IC50 in assay [2] of 12 nM.
Regarding `CNC(=NC#N)NCCOC1CCCN(C(=O)c2ccc(NC(=O)c3ccccc3Cl)cc2OC)c2ccc(Cl)cc21` (centres unmarked) [Example 149, 5-[2-(3-Methyl-2-cyanogianidino)ethoxy]-7-chloro-1-[2-methoxy-4-(2-chlorobenzoylamino)benzoyl]-2,3,4,5-tetrahydro-1H-benzoazepine], the IC50 was 90 nM in assay [1] and 45 nM in assay [2].
In the same order, the values of `COc1cc(NC(=O)c2ccccc2Cl)ccc1C(=O)N1CCCC(OCCNCC#N)c2cc(Cl)ccc21` (centres unmarked) [Example 151] are 46 nM and 8 nM.

The record behind these values is patent publication US5622947A, “Benzoheterocyclic compounds and vasopressin antagonist and oxytocin antagonist compositions containing a benzoheterocyclic compound” (Otsuka Pharmaceutical Co., Ltd., priority 1992, dated 1997).
